In PubChem BioAssay AID1259407 (Chemical Carcinogenesis Research Information System (CCRIS), 2018):
Activity calls are given as the source filed them. The rule behind the calls is not given here.

System: CCRIS mutagenicity, Ames/micronucleus/aberration tests
Assay: CCRIS mutagenicity studies
[1] = Test System: AMES SALMONELLA TYPHIMURIUM, Strain/Indicator: TA98, Metabolic Activation: NONE, Method: PREINCUBATION
[2] = Test System: AMES SALMONELLA TYPHIMURIUM, Strain/Indicator: TA98, Metabolic Activation: NONE, Method: STANDARD PLATE
[3] = Test System: AMES SALMONELLA TYPHIMURIUM, Strain/Indicator: TA100, Metabolic Activation: NONE, Method: PREINCUBATION
[4] = Test System: AMES SALMONELLA TYPHIMURIUM, Strain/Indicator: TA100, Metabolic Activation: NONE, Method: STANDARD PLATE

With `CCCCC(CC)COC(=O)c1ccccc1C(=O)O` (stereo unspecified) as the compound, how does the mutagenic call (Test System: AMES SALMONELLA TYPHIMURIUM, Strain/Indicator: TA97, Metabolic Activation: NONE, Method: STANDARD PLATE) read?
The mutagenic call was “inactive; negative”.

What about the mutagenic call (Test System: AMES SALMONELLA TYPHIMURIUM, Strain/Indicator: TA97, Metabolic Activation: RAT, LIVER, S-9, AROCLOR 1254, Method: STANDARD PLATE) of the same compound?
Its mutagenic call is “inactive; negative”.

What about the mutagenic call (Test System: AMES SALMONELLA TYPHIMURIUM, Strain/Indicator: TA97, Metabolic Activation: RAT, LIVER, S-9, DI(2-ETHYLHEXYL)PHTHALATE, Method: STANDARD PLATE) of the same compound?
Its mutagenic call is “inactive; negative”.

And the mutagenic call (Test System: AMES SALMONELLA TYPHIMURIUM, Strain/Indicator: TA98, Metabolic Activation: HAMSTER, LIVER, S-9, AROCLOR 1254 (10%), Method: PREINCUBATION)?
The mutagenic call was “inactive; negative”.

What about the mutagenic call [1] of the same compound?
Its mutagenic call is “inactive; negative”.

And the mutagenic call [2]?
Its mutagenic call is “inactive; negative”.

What about the mutagenic call (Test System: AMES SALMONELLA TYPHIMURIUM, Strain/Indicator: TA98, Metabolic Activation: RAT, LIVER, S-9, AROCLOR 1254 (10%), Method: PREINCUBATION) of the same compound?
Its mutagenic call is “inactive; negative”.

What about the mutagenic call (Test System: AMES SALMONELLA TYPHIMURIUM, Strain/Indicator: TA98, Metabolic Activation: RAT, LIVER, S-9, AROCLOR 1254, Method: STANDARD PLATE) of the same compound?
Its mutagenic call is “inactive; negative”.

What about the mutagenic call (Test System: AMES SALMONELLA TYPHIMURIUM, Strain/Indicator: TA98, Metabolic Activation: RAT, LIVER, S-9, DI(2-ETHYLHEXYL)PHTHALATE, Method: STANDARD PLATE) of the same compound?
The mutagenic call was “inactive; negative”.

And the mutagenic call (Test System: AMES SALMONELLA TYPHIMURIUM, Strain/Indicator: TA100, Metabolic Activation: HAMSTER, LIVER, S-9, AROCLOR 1254 (10%), Method: PREINCUBATION)?
The mutagenic call was “inactive; negative”.

And the mutagenic call [3]?
Its mutagenic call is “inactive; negative”.

What about the mutagenic call [4] of the same compound?
Its mutagenic call is “inactive; negative”.

And the mutagenic call (Test System: AMES SALMONELLA TYPHIMURIUM, Strain/Indicator: TA100, Metabolic Activation: RAT, LIVER, S-9, AROCLOR 1254 (10%), Method: PREINCUBATION)?
Its mutagenic call is “inactive; negative”.

What about the mutagenic call (Test System: AMES SALMONELLA TYPHIMURIUM, Strain/Indicator: TA100, Metabolic Activation: RAT, LIVER, S-9, AROCLOR 1254, Method: STANDARD PLATE) of the same compound?
Its mutagenic call is “inactive; negative”.

What about the mutagenic call (Test System: AMES SALMONELLA TYPHIMURIUM, Strain/Indicator: TA100, Metabolic Activation: RAT, LIVER, S-9, DI(2-ETHYLHEXYL)PHTHALATE, Method: STANDARD PLATE) of the same compound?
Its mutagenic call is “inactive; negative”.

What about the mutagenic call (Test System: AMES SALMONELLA TYPHIMURIUM, Strain/Indicator: TA102, Metabolic Activation: NONE, Method: STANDARD PLATE) of the same compound?
Its mutagenic call is “inactive; negative”.

And the mutagenic call (Test System: AMES SALMONELLA TYPHIMURIUM, Strain/Indicator: TA102, Metabolic Activation: RAT, LIVER, S-9, AROCLOR 1254, Method: STANDARD PLATE)?
Its mutagenic call is “inactive; negative”.

And the mutagenic call (Test System: AMES SALMONELLA TYPHIMURIUM, Strain/Indicator: TA102, Metabolic Activation: RAT, LIVER, S-9, DI(2-ETHYLHEXYL)PHTHALATE, Method: STANDARD PLATE)?
Its mutagenic call is “inactive; negative”.

What about the mutagenic call (Test System: AMES SALMONELLA TYPHIMURIUM, Strain/Indicator: TA1535, Metabolic Activation: HAMSTER, LIVER, S-9, AROCLOR 1254 (10%), Method: PREINCUBATION) of the same compound?
The mutagenic call was “inactive; negative”.

What about the mutagenic call (Test System: AMES SALMONELLA TYPHIMURIUM, Strain/Indicator: TA1535, Metabolic Activation: NONE, Method: PREINCUBATION) of the same compound?
Its mutagenic call is “inactive; negative”.

And the mutagenic call (Test System: AMES SALMONELLA TYPHIMURIUM, Strain/Indicator: TA1535, Metabolic Activation: RAT, LIVER, S-9, AROCLOR 1254 (10%), Method: PREINCUBATION)?
The mutagenic call was “inactive; negative”.

What about the mutagenic call (Test System: AMES SALMONELLA TYPHIMURIUM, Strain/Indicator: TA1537, Metabolic Activation: HAMSTER, LIVER, S-9, AROCLOR 1254 (10%), Method: PREINCUBATION) of the same compound?
Its mutagenic call is “inactive; negative”.

What about the mutagenic call (Test System: AMES SALMONELLA TYPHIMURIUM, Strain/Indicator: TA1537, Metabolic Activation: NONE, Method: PREINCUBATION) of the same compound?
The mutagenic call was “inactive; negative”.

What about the mutagenic call (Test System: AMES SALMONELLA TYPHIMURIUM, Strain/Indicator: TA1537, Metabolic Activation: RAT, LIVER, S-9, AROCLOR 1254 (10%), Method: PREINCUBATION) of the same compound?
The mutagenic call was “inactive; negative”.

`CC(=O)Nc1cccc2ncccc12` was tested. Which mutagenic call [1] did it give?
Its mutagenic call is “inactive; negative”.

What about the mutagenic call (Test System: AMES SALMONELLA TYPHIMURIUM, Strain/Indicator: TA98, Metabolic Activation: RAT, LIVER, S-9, KANECHLOR 500, Method: PREINCUBATION) of the same compound?
The mutagenic call was “inactive; negative”.

What about the mutagenic call [3] of the same compound?
The mutagenic call was “inactive; negative”.

And the mutagenic call (Test System: AMES SALMONELLA TYPHIMURIUM, Strain/Indicator: TA100, Metabolic Activation: RAT, LIVER, S-9, KANECHLOR 500, Method: PREINCUBATION)?
The mutagenic call was “inactive; negative”.

`CN(C)CCNC(=O)c1cccc2c1Nc1ccccc1O2` was tested. Which mutagenic call (Test System: AMES SALMONELLA TYPHIMURIUM, Strain/Indicator: TA1537, Metabolic Activation: NONE, Method: STANDARD PLATE) did it give?
Its mutagenic call is “active; positive”.

Which results are given for `O=[N+]([O-])c1ccc2ccc3c4c(cc5ccc1c2c53)C=C[C@H](O)[C@H]4O`?
mutagenic call (Test System: AMES SALMONELLA TYPHIMURIUM, Strain/Indicator: TA98, Metabolic Activation: NONE): active; positive; mutagenic call (Test System: AMES SALMONELLA TYPHIMURIUM, Strain/Indicator: TA98, Metabolic Activation: RAT, LIVER, S-9, AROCLOR 1254): active; positive; mutagenic call (Test System: CHINESE HAMSTER OVARY, Strain/Indicator: CHO-K1-BH4 (HGPRT), Metabolic Activation: NONE): inactive; negative; mutagenic call (Test System: CHINESE HAMSTER OVARY, Strain/Indicator: CHO-K1-BH4 (HGPRT), Metabolic Activation: RAT, LIVER, S-9, 3-METHYLCHOLANTHRENE): inactive; negative

How did the mutagenic call [2] turn out when `CC/C(=C(/CC)c1ccc(OP(=O)(O)O)cc1)c1ccc(OP(=O)(O)O)cc1` was run?
The mutagenic call was “inactive; negative”.

What about the mutagenic call [4] of the same compound?
The mutagenic call was “inactive; negative”.

And the mutagenic call (Test System: E. COLI, Strain/Indicator: WP2 (HCR), Metabolic Activation: NONE, Method: STANDARD PLATE)?
Its mutagenic call is “inactive; negative”.
